Biological target: T1, human Gal-3 (Homo sapiens, UniProt P17931)
T1 construct: made in house; host or cells: E. coli Rosetta (DE3) pLysS
Test: Competitive inhibition of Gal-3 binding to immobilized ASF
Conditions: for IC50: 5 µM galectin-3 binding to immobilized ASF; for Relative potency: related to the corresponding tetrasaccharide (4 or 5); for Relative potency per glycan: related to the corresponding tetrasaccharide and to one binding site
Method: Neo-glycoproteins were used as inhibitors of Gal-3 to ASF binding in competitive inhibition assays performed as described. The standard glycoprotein ASF (Sigma-Aldrich) was immobilized in microtiter plates as described above for neo-glycoproteins. After blocking, 5 µM Gal-3 and varying concentration of 11j, 11k, 11g and 12j, 12k, 12g were simultaneously incubated for 1 h followed by detection of bound Gal-3 as described above. Measured data were fitted and IC50 values calculated using Sigma Plot software (Systat software GmbH).

T1 sequence (P17931 whole entry): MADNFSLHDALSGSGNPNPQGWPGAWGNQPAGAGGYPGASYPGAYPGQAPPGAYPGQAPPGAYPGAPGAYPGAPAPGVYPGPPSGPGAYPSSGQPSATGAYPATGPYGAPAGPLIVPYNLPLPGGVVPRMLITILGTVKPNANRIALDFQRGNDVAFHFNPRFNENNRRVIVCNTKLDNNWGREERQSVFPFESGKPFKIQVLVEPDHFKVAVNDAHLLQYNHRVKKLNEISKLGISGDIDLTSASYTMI

Row | Structure (SMILES) | IC50 [µM] | Relative potency (5 µM galectin-3, ASF) | Relative potency per glycan (5 µM galectin-3, ASF) | Higher inhibition of Gal-3 binding compared to 4 (5 µM galectin-3, ASF, compared with LacNAc-LacNAc (4)) [fold]
1 | CC(=O)N[C@@H]1[C@@H](O)[C@H](O[C@@H]2O[C@H](CO)[C@H](O)[C@H](O[C@@H]3O[C@H](CO)[C@@H](O[C@@H]4O[C@H](CO)[C@H](O)[C@H](O)[C@H]4O)[C@H](O)[C@H]3NC(C)=O)[C@H]2O)[C@@H](CO)O[C@H]1NC(=S)NCCNC(=O)OC(C)(C)C [Compound 4, Galβ1, 4GlcNAcβ1, 3Galβ1, 4GlcNAcβ1-linker-NH2-tBoc] | 13 ± 3.43 | 1.0 ± 0.26 | 1.0 ± 0.26 | 
2 | CC(=O)N[C@@H]1[C@@H](O)[C@H](O[C@@H]2O[C@H](CO)[C@H](O)[C@H](O[C@@H]3O[C@H](CO)[C@@H](O[C@@H]4O[C@H](CO)[C@H](O)[C@H](O)[C@H]4NC(C)=O)[C@H](O)[C@H]3NC(C)=O)[C@H]2O)[C@@H](CO)O[C@H]1NC(=S)NCCNC(=O)OC(C)(C)C [Compound 5, GalNAcβ1,4GlcNAcβ1,3Galβ1,4GlcNAcβ1-linker-NH2-tBoc] | 7.23 ± 0.87 | 1.0 ± 0.12 | 1.0 ± 0.12 | 1.5

— article PMC4598770, “Galectin Binding to Neo-Glycoproteins: LacDiNAc Conjugated BSA as Ligand for Human Galectin-3” (Biomolecules, 2015)
